Assay results published in patent US20250257034A1, “INDOLE DERIVATIVES AS SEROTONERGIC AGENTS USEFUL FOR THE TREATMENT OF DISORDERS RELATED THERETO” (priority 2023, published 2025).
Where “and” joins values, the source holds several entries; their conditions need not be identical. Identical values can stand only once.

How the values were obtained:
Format in all cases: in vitro ADME
[1] = Mouse liver microsomes stability; details: for microsomal CLint at 2 μM: mouse, read-out: CLint (μL/min/mg protein)
Protocol: (§1) The objective of this study was to estimate in vitro metabolic stability of exemplary compounds of Formula (I) or a pharmaceutically acceptable salt, solvate, and/or prodrug thereof in pooled human, male rat, and male mouse liver microsomes. The concentrations of compounds in reaction systems were evaluated by LC-MS/MS for estimating the stability in pooled human, male rat, and male mouse liver microsomes. The in vitro intrinsic clearances of test compounds were determined as well.
(§2) A master solution in the “Incubation Plate” containing phosphate buffer, ultra-pure H2O, MgCl2 solution and liver microsomes was made according to Table 33. The mixture was pre-warmed at 37° C. water bath for 5 minutes.
(§3) 40 μL of 10 mM nicotinamide adenine dinucleotide phosphate (NADPH) solution was added to each well. The final concentration of NADPH was 1 mM. The negative control samples were prepared by replacing NADPH with 40 μL of ultra-pure H2O. Samples were prepared in duplicate. Negative controls were prepared in singlet.
(§4) The reaction was started with the addition of 4 μL of 200 μM exemplary test compounds of the disclosure or control compounds to each master solution to get the final concentration of 2 μM. This study was performed in duplicate.
(§5) Aliquots of 50 μL were taken from the reaction solution at 0, 15, 30, 45, and 60 minutes. The reaction solutions were stopped by the addition of 4 volumes of cold methanol with IS (100 nM alprazolam, 200 nM imipramine, 200 nM labet alol and 2 μM ketoprofen). Samples were centrifuged at 3,220 g for 40 minutes. Aliquot of 90 μL of the supernatant was mixed with 90 μL of ultra-pure H2O and then was used for LC-MS/MS analysis.
(§6) LC/MS analysis was performed for all samples from this study using a Shimadzu liquid chromatograph separation system equipped with degasser DGU-20A5R; solvent delivery unit LC-30AD; system controller SIL-30AC; column oven CTO-30A; CTC Analytics HTC PAL System. Mass spectrometric analysis was performed using a Triple Quad™ 5500 instrument.
(§7) All calculations were carried out using Microsoft Excel. Peak area ratios of test compound to internal standard (listed in the below table) were determined from extracted ion chromatograms.
(§8) All calculations were carried out using Microsoft Excel. Peak areas were determined from extracted ion chromatograms. The slope value, k, was determined by linear regression of the natural logarithm of the remaining percentage of the parent drug vs. incubation time curve.
(§9) The in vitro half-life (in vitro t1/2) was determined from the slope value:
(§10) Conversion of the in vitro t1/2(min) into the in vitro intrinsic clearance (in vitro CLint, in μL/min/mg proteins) was done using the following equation (mean of duplicate determinations): […]
(§11) A master solution in the “Incubation Plate” containing phosphate buffer, ultra-pure H2O, MgCl2 solution and liver microsomes was made according to Table 63. The mixture was pre-warmed at 37° C. water bath for 5 minutes.
(§12) 40 μL of 10 mM NADPH solution was added to each well. The final concentration of NADPH was 1 mM. The negative control samples were prepared by replacing NADPH with 40 μL of ultra-pure H2O. Samples were prepared in duplicate. Negative controls were prepared in singlet.
(§13) Conversion of the in vitro t1/2(min) into the in vitro intrinsic clearance (in vitro C Lt, in μL/min/mg proteins) was done using the following equation (mean of duplicate determinations): […]

[2] = Rat liver microsomes stability; details: for CLint (μL/min/mg protein) / t1/2 / half-life at 2 μM / microsomal CLint at 2 μM: 2 μM compound; for half-life at 2 μM / microsomal CLint at 2 μM: male, rat; for microsomal CLint at 2 μM: read-out: CLint (μL/min/mg protein)
Protocol: as §1, §2, §3, §4, §5, §6, §7, §8, §9, §10, §11, §12, §13

[3] = Human liver microsomes stability; details: for CLint (μL/min/mg protein) / t1/2: 2 μM compound
Protocol: as §1, §2, §3, §4, §5, §6, §7, §8, §9, §10, §11, §12, §13

[4] = mouse liver microsomes, 2 μM compound, 0.5 mg/mL
[5] = mouse liver microsomes, With Cofactors, 0 min
[6] = mouse liver microsomes, With Cofactors, 30 min
[7] = mouse liver microsomes, With Cofactors, 60 min
[8] = mouse liver microsomes, Without Cofactors, 0 min
[9] = mouse liver microsomes, Without Cofactors, 30 min
[10] = mouse liver microsomes, Without Cofactors, 60 min
[11] = Rat liver microsomes, 0.5 mg/mL microsomes, 1 mM NADPH
[12] = Rat liver microsomes, 0.5 mg/mL microsomes, 1 mM NADPH, 37° C
[13] = rat liver microsomes, 0.5 mg/mL
[14] = rat liver microsomes, With Cofactors, 0 min
[15] = rat liver microsomes, With Cofactors, 30 min
[16] = rat liver microsomes, With Cofactors, 60 min
[17] = rat liver microsomes, Without Cofactors, 0 min
[18] = rat liver microsomes, Without Cofactors, 30 min
[19] = rat liver microsomes, Without Cofactors, 60 min
[20] = human liver microsomes, 0.5 mg/mL
[21] = human liver microsomes, With Cofactors, 0 min
[22] = human liver microsomes, With Cofactors, 30 min
[23] = human liver microsomes, With Cofactors, 60 min
[24] = human liver microsomes, Without Cofactors, 0 min
[25] = human liver microsomes, Without Cofactors, 30 min
[26] = human liver microsomes, Without Cofactors, 60 min
[27] = pooled liver microsomes, rat liver microsomes, 0.5 mg/mL

SMILES: COc1ccc2[nH]cc(CCN(C)C)c2c1 [Compound 5-MeO-DMT]
- Predicted hepatic CL ([1]; Mouse liver microsomes): 54.19 mL/min/kg
- Scaled-up CLint ([1]; Mouse liver microsomes): 136.21 mL/min/kg
- CLint (μL/min/mg protein) ([1]; Mouse liver microsomes, 2 μM compound, 0.5 mg/mL microsomes, 1 mM NADPH): 31.13 μL/min/mg protein
- t1/2 ([1]; Mouse liver microsomes, 2 μM compound, 0.5 mg/mL microsomes, 1 mM NADPH, 37° C): 44.52 min
- Predicted hepatic CL ([1]; mouse liver microsomes): 54.19 mL/min/kg
- Scaled-up CLint ([1]; mouse liver microsomes): 136.21 mL/min/kg
- CLint (μL/min/mg protein) [1, 4]: 31.13 μL/min/mg protein
- t1/2 [1, 4]: 44.52 min
- Remaining Percentage (%) [1, 5]: 100.00%
- Remaining Percentage (%) [1, 6]: 61.84%
- Remaining Percentage (%) [1, 7]: 39.30%
- Remaining Percentage (%) [1, 8]: 100.00%
- Remaining Percentage (%) [1, 9]: 104.76%
- Remaining Percentage (%) [1, 10]: 95.24%
- Predicted hepatic CL ([2]; Rat liver microsomes): 49.02 mL/min/kg
- Scaled-up CLint ([2]; Rat liver microsomes): 437.56 mL/min/kg
- CLint (μL/min/mg protein) [2, 11]: 244.17 μL/min/mg protein
- t1/2 [2, 12]: 5.68 min
- Predicted hepatic CL ([2]; rat liver microsomes): 49.02 mL/min/kg
- Scaled-up CLint ([2]; rat liver microsomes): 437.56 mL/min/kg
- CLint (μL/min/mg protein) [2, 13]: 244.17 μL/min/mg protein
- t1/2 [2, 13]: 5.68 min
- Remaining Percentage (%) [2, 14]: 100.00%
- Remaining Percentage (%) [2, 15]: 2.57%
- Remaining Percentage (%) [2, 16]: 0.36%
- Remaining Percentage (%) [2, 17]: 100.00%
- Remaining Percentage (%) [2, 18]: 49.55%
- Remaining Percentage (%) [2, 19]: 23.82%
- Predicted hepatic CL ([3]; Human liver microsomes): 18.09 mL/min/kg
- Scaled-up CLint ([3]; Human liver microsomes): 143.22 mL/min/kg
- CLint (μL/min/mg protein) ([3]; Human liver microsomes, 0.5 mg/mL microsomes, 1 mM NADPH): 114.19 μL/min/mg protein
- t1/2 ([3]; Human liver microsomes, 0.5 mg/mL microsomes, 1 mM NADPH, 37° C): 12.14 min
- Predicted hepatic CL ([3]; human liver microsomes): 18.09 mL/min/kg
- Scaled-up CLint ([3]; human liver microsomes): 143.22 mL/min/kg
- CLint (μL/min/mg protein) [3, 20]: 114.19 μL/min/mg protein
- t1/2 [3, 20]: 12.14 min
- Remaining Percentage (%) [3, 21]: 100.00%
- Remaining Percentage (%) [3, 22]: 19.24%
- Remaining Percentage (%) [3, 23]: 3.25%
- Remaining Percentage (%) [3, 24]: 100.00%
- Remaining Percentage (%) [3, 25]: 18.58%
- Remaining Percentage (%) [3, 26]: 3.00%

SMILES: O=C(O)Cc1ccccc1Nc1c(Cl)cccc1Cl [Diclofenac]
- Predicted hepatic CL ([1]; Mouse liver microsomes): 54.78 mL/min/kg and 56.11 mL/min/kg
- microsomal CLint at 2 μM ([1]; male, liver microsomes, Mouse liver microsomes, 2 μM compound, 0.5 mg/mL microsomes, 1 mM NADPH): 32 µL/min/mg
- microsomal CLint at 2 μM ([1]; male, pooled liver microsomes, mouse liver microsomes, 2 μM compound, 0.5 mg/mL): 32 µL/min/mg
- half-life at 2 μM ([1]; male, Mouse liver microsomes, 2 μM compound, 0.5 mg/mL microsomes, 1 mM NADPH, 37° C): 40.7 min
- Predicted hepatic CL ([1]; mouse liver microsomes): 54.78 mL/min/kg and 57.42 mL/min/kg
- Scaled-up CLint ([1]; mouse liver microsomes): 158.60 mL/min/kg
- CLint (μL/min/mg protein) [1, 4]: 36.25 μL/min/mg protein
- t1/2 [1, 4]: 38.23 min
- Remaining Percentage (%) [1, 5]: 100.00%
- Remaining Percentage (%) [1, 6]: 45.55%
- Remaining Percentage (%) [1, 7]: 33.71%
- Remaining Percentage (%) [1, 8]: 100.00%
- Remaining Percentage (%) [1, 9]: 89.49%
- Remaining Percentage (%) [1, 10]: 96.59%
- Predicted hepatic CL ([2]; Rat liver microsomes): 41.22 mL/min/kg and 41.25 mL/min/kg
- CLint (μL/min/mg protein) [2, 11]: 91.05 μL/min/mg protein
- t1/2 [2, 12]: 15.22 min
- half-life at 2 μM ([2]; liver microsomes, Rat liver microsomes, 0.5 mg/mL microsomes, 1 mM NADPH, 37° C): 15.3 min
- microsomal CLint at 2 μM ([2]; liver microsomes, Rat liver microsomes, 0.5 mg/mL microsomes, 1 mM NADPH): 90.8 µL/min/mg
- half-life at 2 μM [2, 27]: 15.1 min
- microsomal CLint at 2 μM [2, 27]: 91.9 µL/min/mg
- Predicted hepatic CL ([2]; rat liver microsomes): 41.34 mL/min/kg and 41.25 mL/min/kg
- CLint (μL/min/mg protein) [2, 13]: 91.05 μL/min/mg protein
- t1/2 [2, 13]: 15.22 min
- Remaining Percentage (%) [2, 14]: 100.00%
- Remaining Percentage (%) [2, 15]: 11.86%
- Remaining Percentage (%) [2, 16]: 6.35%
- Remaining Percentage (%) [2, 17]: 100.00%
- Remaining Percentage (%) [2, 18]: 102.19%
- Remaining Percentage (%) [2, 19]: 100.63%
- Predicted hepatic CL ([3]; Human liver microsomes): 18.38 mL/min/kg and 18.35 mL/min/kg
- Predicted hepatic CL ([3]; human liver microsomes): 18.44 mL/min/kg and 18.35 mL/min/kg
- Remaining Percentage (%) [3, 21]: 100.00%
- Remaining Percentage (%) [3, 22]: 5.01%
- Remaining Percentage (%) [3, 23]: 1.77%
- Remaining Percentage (%) [3, 24]: 100.00%
- Remaining Percentage (%) [3, 25]: 112.67%
- Remaining Percentage (%) [3, 26]: 96.67%
